Measured values from patent publication US20250108037A1, “COMPOSITION CONTAINING ERGOTHIONEINE FOR SUPPRESSING OR PREVENTING INNER EAR HEARING LOSS” (MITSUBISHI GAS CHEMICAL COMPANY, INC., priority 2021, published 2025).

System: C57BL/6J mouse, age-related hearing loss model
Assay: ABR (auditory brainstem response) test in age-related hearing loss model mice after oral administration once a day
Type: in vivo
Conditions: given as yeast extract powder

## C[N+](C)(C)[C@@H](Cc1c[nH]c(=S)[nH]1)C(=O)[O-] [ergothioneine, Ergothioneine]
Example 2, Tables 5 and 6, 24 and 32 kHz
  hearing loss suppression effect: confirmed at either frequency, but was particularly remarkable at 24 kHz
Conclusion from the ABR results
  progression of hearing loss: delayed
